Each structure is given as a SMILES string. A value given as a limit tells only on which side of the number the result lay.

For this assay, the target named is T1, human H3 receptors (Homo sapiens, UniProt Q9Y5N1).
T1 construct: host or cells: CHO-K1
T1 sequence (Q9Y5N1 whole entry): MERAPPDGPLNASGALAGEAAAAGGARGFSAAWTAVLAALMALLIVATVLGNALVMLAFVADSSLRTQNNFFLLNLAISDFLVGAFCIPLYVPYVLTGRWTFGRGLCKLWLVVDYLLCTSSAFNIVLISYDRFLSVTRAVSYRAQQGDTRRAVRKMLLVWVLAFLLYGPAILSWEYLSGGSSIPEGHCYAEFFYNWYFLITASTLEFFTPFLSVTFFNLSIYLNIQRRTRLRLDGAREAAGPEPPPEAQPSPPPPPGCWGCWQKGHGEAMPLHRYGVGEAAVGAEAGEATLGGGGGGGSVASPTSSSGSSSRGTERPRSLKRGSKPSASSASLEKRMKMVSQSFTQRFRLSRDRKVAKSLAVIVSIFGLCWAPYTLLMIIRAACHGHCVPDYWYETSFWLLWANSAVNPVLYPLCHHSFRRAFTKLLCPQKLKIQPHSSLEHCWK
Put plainly: cAMP quantification protocol for human H3 receptor testing. It counts as cell-based. The following applies: inhibition of agonist-induced (100 nM histamine, 10 μM forskolin) decrease of intracellular cAMP; CHO-K1 cell line expressing human H3 receptors; read-out: Potency range (IC50 values). Here is the method:
CHO-K1 cell line expressing human H3 receptors were purchased from Euroscreen (Gosselies, Belgium, Cat. no.: ES-392-C)
Human H3 receptor-expressing cell-lines were grown in Ham's F12 [Sigma, Cat. no. N6658], supplemented with 10% FBS [Sigma, Cat. no. F9665], 400 μg/ml G418 [Sigma, Cat. no. N1876] and 250 μg/ml Zeocin [Invitrogen, Cat. no. 46-0509]) according to the protocol provided by Euroscreen.
cAMP Quantification Protocol for Human H3 Receptor Testing
The assay measures the ability of test compounds to inhibit Histamine receptor agonist-induced decrease of intracellular free cAMP (receptor is Gi coupled).
Specifically, a cAMP quantification assay system from DiscoveRx (cAMP XS+; Cat. no. 90-0075) was used.
For the cAMP assay, confluent cells were detached from the culture vessels with 1× trypsin-EDTA solution (Sigma), and seeded into 384-well Costar plates (white, clear bottom, Cat. no. 3707) at a density of 10,000 cells per well. Cells were seeded in a volume of 50 μl in medium without antibiotics and incubated overnight in a humidified atmosphere with 5% CO2 at 37° C. The cAMP assay was performed according to the protocol provided by DiscoveRx.
The cell culture medium was removed and the cells washed once with PBS (50 μl per well). The plates were emptied by inversion and 7.5 μl/well of compound in PBS (containing 1 mM IBMX and 0.03% BSA) were added and incubated for 30 min at 37° C.
Subsequent 7.5 μl/well specific agonist solution was added and the plates for another 30 min incubated at 37° C.
The following agonist solution is used:
100 nM histamine, 10 μM forskolin in PBS (containing 1 mM IBMX and 0.03% BSA)
After the incubation with the agonist, 5 μl/well cAMP XS antibody solution was added followed by 20 μl/well Gal/EII/Lysis(1:5:19)+ED (1:1). The plates were incubated for one hour at room temperature and afterwards 20 μl/well EA reagent was added. The luminescence was developed for approximately three hours at room temperature and the plates were read out using a ‘BMG Novostar’ plate reader.
Test compounds were assayed at 8 concentrations in triplicate. Serial 10-fold dilutions in 100% DMSO were made at a 100-times higher concentration than the final concentration and then diluted with a 2 step protocol in assay buffer to reach the required assay concentrations and 1% DMSO.
Turning to `CC(C)N1CCC(Oc2nc3c(cc2C#N)C2CCCC(=O)N2CC3)CC1` (stereo not shown) [Example 30, 3-{[1-(1-methylethyl)piperidin-4-yl]oxy}-8-oxo-5,8,9,10,11,11a-hexahydro-6H-pyrido[2,1-f][1,6]naphthyridine-2-carbonitrile], the IC50 is below 100 nM.

Consider `O=C1CCC2c3ccc(OC4CCN(C5CCCC5)CC4)nc3CCN12` (stereo not shown) [Example 28, 3-[(1-Cyclopentylpiperidin-4-yl)oxy]-5,9,10,10a-tetrahydropyrrolo[2,1-f][1,6]naphthyridin-8(6H)-one], for which the IC50 is below 100 nM.

For the molecule `O=C1CCCC2c3ccc(OC4CCN(C5CCCC5)CC4)nc3CCN12` (stereo not shown) [Example 26, 3-[(1-Cyclopentylpiperidin-4-yl)oxy]-5,6,9,10,11,11a-hexahydro-8H-pyrido[2,1-f][1,6]naphthyridin-8-one], the half-inhibitory concentration (IC50) is below 100 nM.

As to `O=C1CCCC2c3ccc(O[C@H]4CCN(C5CCCC5)C4)nc3CCN12` (stereo partly drawn) [Example 21, 3-{[(3S)-1-cyclopentylpyrrolidin-3-yl]oxy}-5,6,9,10,11,11a-hexahydro-8H-pyrido[2,1-f][1,6]naphthyridin-8-one], the concentration for half-maximal inhibition (IC50) is 100 to 500 nM.

As for `CN1CCC(Oc2ccc3c(n2)CCN2C(=O)CCCC32)CC1` (stereo not shown) [Example 23, 3-[(1-Methylpiperidin-4-yl)oxy]-5,6,9,10,11,11a-hexahydro-8H-pyrido[2,1-f][1,6]naphthyridin-8-one], the half-inhibitory concentration (IC50) was 500 to 5000 nM.

In the case of `CN1CCc2nc(O[C@@H]3CCN(C4CCCC4)C3)ccc2C1` [Example 3, 2-{[(3R)-1-Cyclopentylpyrrolidin-3-yl]oxy}-6-methyl-5,6,7,8-tetrahydro-1,6-naphthyridine], the half-inhibitory concentration (IC50) lay within 100 to 500 nM.

For the molecule `CN1CCc2nc(OC3CCN(C4CCC4)CC3)c(C#N)cc2C1` [Example 12, 2-[(1-Cyclobutylpiperidin-4-yl)oxy]-6-methyl-5,6,7,8-tetrahydro-1,6-naphthyridine-3-carbonitrile], the IC50 is below 100 nM.

In the case of `CN1CCc2nc(OC3CCN(C4CC4)CC3)c(C#N)cc2C1` [Example 11, 2-[(1-Cyclopropylpiperidin-4-yl)oxy]-6-methyl-5,6,7,8-tetrahydro-1,6-naphthyridine-3-carbonitrile], the IC50 is below 100 nM.

As for `CN1CCc2nc(O[C@H]3CCN(C4CCCC4)C3)ccc2C1` [Example 4, 2-{[(3S)-1-Cyclopentylpyrrolidin-3-yl]oxy}-6-methyl-5,6,7,8-tetrahydro-1,6-naphthyridine], the IC50 was 100 to 500 nM.

As for `O=C1CCCC2c3ccc(OCCCN4CCCC4)nc3CCN12` (stereo not shown) [Example 18, 3-(3-pyrrolidin-1-ylpropoxy)-5,6,9,10,11,11a-hexahydro-8H-pyrido[2,1-f][1,6]naphthyridin-8-one], the concentration for half-maximal inhibition (IC50) was below 100 nM.

Consider `CN1CCc2nc(OC3CCN(C4CCC4)CC3)ncc2C1` [Example 13, 2-[(1-Cyclobutylpiperidin-4-yl)oxy]-6-methyl-5,6,7,8-tetrahydropyrido[4,3-d]pyrimidine], for which the IC50 is below 100 nM.

As to `CC(C)N1CCC(Oc2ccc3c(n2)CCN(C)C3)CC1` [Example 8, 6-Methyl-2-{[1-(1-methylethyl)piperidin-4-yl]oxy}-5,6,7,8-tetrahydro-1,6-naphthyridine], the IC50 is below 100 nM.

In the case of `O=C1CCC2c3ccc(OC4CCN(C5CCC5)CC4)nc3CCN12` (stereo not shown) [Example 27, 3-[(1-Cyclobutylpiperidin-4-yl)oxy]-5,9,10,10a-tetrahydropyrrolo[2,1-f][1,6]naphthyridin-8(6H)-one], the 50% inhibitory concentration (IC50) was below 100 nM.

With `O=C1CCCC2c3ccc(OC4CCN(C5CCC5)CC4)nc3CCN12` (stereo not shown) [Example 14, 3-[(1-Cyclobutylpiperidin-4-yl)oxy]-5,6,9,10,11,11a-hexahydro-8H-pyrido[2,1-f][1,6]naphthyridin-8-one], the 50% inhibitory concentration (IC50) was below 100 nM.

Consider `CN(c1nc2c(cc1C#N)C1CCCC(=O)N1CC2)C1CCN(C2CCC2)CC1` (stereo not shown) [Example 31, 3-[(1-cyclobutylpiperidin-4-yl)(methyl)amino]-8-oxo-5,8,9,10,11,11a-hexahydro-6H-pyrido[2,1-f][1,6]naphthyridine-2-carbonitrile], for which the IC50 is below 100 nM.

In the case of `CN1CCc2nc(OC3CCN(C4CCCC4)CC3)ccc2C1` [Example 2, 2-[(1-Cyclopentylpiperidin-4-yl)oxy]-6-methyl-5,6,7,8-tetrahydro-1,6-naphthyridine], the half-maximal inhibitory concentration (IC50) is below 100 nM.

`CN1CCC(Oc2ccc3c(n2)CCN(C)C3)CC1` [Example 9, 6-Methyl-2-[(1-methylpiperidin-4-yl)oxy]-5,6,7,8-tetrahydro-1,6-naphthyridine]: the IC50 lay within 500 to 5000 nM.

With `O=C1CCCC2c3ccc(O[C@H]4CCN(C5CCC5)C4)nc3CCN12` (mixture of isomers) [Example 17, 3-{[(3S)-1-cyclobutylpyrrolidin-3-yl]oxy}-5,6,9,10,11,11a-hexahydro-8H-pyrido[2,1-f][1,6]naphthyridin-8-one], the IC50 was in the range of 500 to 5000 nM.

On to `CN1CCc2nc(O[C@@H]3CCN(C4CCC4)C3)ccc2C1` [Example 5, 2-{[(3R)-1-Cyclobutylpyrrolidin-3-yl]oxy}-6-methyl-5,6,7,8-tetrahydro-1,6-naphthyridine], for which the IC50 was 100 to 500 nM.

Take `O=C1CCCC2c3ccc(OCCN4CCCCC4)nc3CCN12` (stereo not shown) [Example 24, 3-(2-piperidin-1-ylethoxy)-5,6,9,10,11,11a-hexahydro-8H-pyrido[2,1-f][1,6]naphthyridin-8-one]: the IC50 lay in the range of 500 to 5000 nM.

Turning to `O=C1CCCC2c3ccc(OCCCN4CCOCC4)nc3CCN12` (stereo not shown) [Example 20, 3-(3-morpholin-4-ylpropoxy)-5,6,9,10,11,11a-hexahydro-8H-pyrido[2,1-f][1,6]naphthyridin-8-one], the IC50 is 500 to 5000 nM.

With `CN1CCc2nc(OCCCN3CCCC3)ccc2C1` [Example 7, 6-Methyl-2-(3-pyrrolidin-1-ylpropoxy)-5,6,7,8-tetrahydro-1,6-naphthyridine], the IC50 was below 100 nM.

Take `CC(C)N1CCC(N(C)c2ccc3c(n2)CCN2C(=O)CCCC32)CC1` (stereo not shown) [Example 32, 3-{methyl[1-(1-methylethyl)piperidin-4-yl]amino}-5,6,9,10,11,11a-hexahydro-8H-pyrido[2,1-f][1,6]naphthyridin-8-one]: the 50% inhibitory concentration (IC50) is below 100 nM.

In the case of `O=C1CCCC2c3ccc(O[C@@H]4CCN(C5CCC5)C4)nc3CCN12` (mixture of isomers) [Example 16, 3-{[(3R)-1-cyclobutylpyrrolidin-3-yl]oxy}-5,6,9,10,11,11a-hexahydro-8H-pyrido[2,1-f][1,6]naphthyridin-8-one], the IC50 lay in the range of 100 to 500 nM.

For `CC(C)N1CCC(Oc2nc3c(cc2C#N)CN(C)CC3)CC1` [Example 10, 6-Methyl-2-{[1-(1-methylethyl)piperidin-4-yl]oxy}-5,6,7,8-tetrahydro-1,6-naphthyridine-3-carbonitrile], the half-inhibitory concentration (IC50) was below 100 nM.

For `N#Cc1cc2c(nc1OC1CCN(C3CCC3)CC1)CCN1C(=O)CCCC21` (stereo not shown) [Example 29, 3-[(1-Cyclobutylpiperidin-4-yl)oxy]-8-oxo-5,8,9,10,11,11a-hexahydro-6H-pyrido[2,1-f][1,6]naphthyridine-2-carbonitrile], the half-inhibitory concentration (IC50) is below 100 nM.

Turning to `CN1CCc2nc(OC3CCN(C4CCC4)CC3)ccc2C1` [Example 1, 2-[(1-Cyclobutylpiperidin-4-yl)oxy]-6-methyl-5,6,7,8-tetrahydro-1,6-naphthyridine], the IC50 is below 100 nM.

With `CN1CCc2nc(O[C@H]3CCN(C4CCC4)C3)ccc2C1` [Example 6, 2-{[(3S)-1-Cyclobutylpyrrolidin-3-yl]oxy}-6-methyl-5,6,7,8-tetrahydro-1,6-naphthyridine], the half-inhibitory concentration (IC50) was 500 to 5000 nM.

For the origin of these results see patent publication US20110046130A1, “TETRAHYDRONAPHTHYRIDINES AND AZA DERIVATIVES THEREOF AS HISTAMINE H3 RECEPTOR ANTAGONISTS” (Evotec AG, priority 2008, published 2011).
